Series [1] relates to HT-29 (colorectal carcinoma). The experiment in a line: In vitro tumor growth inhibition (GI50, propidium iodide). The conditions noted are these: Homo sapiens, 96 hrs. Type of series: cell-based.
The test system of series [2] is Saccharomyces cerevisiae FHCRC-50514. Kind of series: Antifungal activity, MIC (NCCLS M27-A). The class given is cell-based. The following applies: FHCRC50514, after 24 hours, YPD medium. How it is done:
(§1) Testing of antifungal activity was performed according to NCCLS method (NCCLS. Reference Method for Broth Dilution Antifungal Susceptibility Testing of Yeasts; Approved Standard. NCCLS document M27-A (ISBN 1-56238-328-0). NCCLS, 940 West Valley Road, Suite 1400, Wayne, Pa. 19087-1898 USA; www.nccls.org.). Compound 1 was prepared as 100× stock solutions in DMSO, with concentrations ranging from 3.2 mg/mL to 0.003 mg/mL (a two-fold dilution series over 11 points). An aliquot of each 100× stock solution was diluted 50-fold in test medium described below to give a set of eleven (11) 2× solutions. 50 μL of each of the eleven 2× solutions was aliquoted into the corresponding well of a 12-well row, with the final well reserved for medium alone control. Inoculum density for each indicator strain was adjusted to OD600=0.1 in 5 mL 0.85% saline, then further diluted 1/1000 in YPD medium. 50 μL of the final dilution (in test medium) of each indicator strain was added to each well of a 12-well row. This brings the final dilution of the test article or control compound in solution to 1×. The final inoculum was approximately 5×10^4 CFU/ml.
(§2) Bacterial strains Streptococcus pneumoniae LSPQ 3412 and LSPQ 3349 were obtained from the “Laboratoire de Sante Publique du Quebec”. Saccharomyces cerevisiae FHCRC-50014 and FHCRC-50514 were obtained from the “Fred Hutchison Cancer Research Center”.

Series [3] relates to Saccharomyces cerevisiae FHCRC-50014. Kind of series: Antifungal activity, MIC (NCCLS M27-A). Type of series: cell-based. The conditions noted are these: FHCRC50014, after 24 hours, YPD medium. How it is done:
as §1, §2

The subject of series [4] is Sheep red blood cells. The experiment in a line: In vitro toxicity: hemolytic activity. The conditions noted are these: 2 hrs at 37° C.; 2 to 64 μg/mL; prepared in DMSO or in 6% Tween/4.5% Glycocholate/5% EtOH formulation. The class given is cell-based. Here is the method: In vitro toxicity: Sheep red blood cells were exposed to Compound 1 for 2 hrs at 37° C. at concentrations ranging from 2 to 64 μg/mL. Hemolytic activity was determined by monitoring the amount of hemoglobin released spectrophotometrically.

Series [5] has as its system Streptococcus pneumoniae PenR (LSPQ 3349). The experiment in a line: Antibacterial activity, MIC (NCCLS M7-A5). The class given is cell-based. The following applies: MH medium +2% lysed horse blood.
The nature of series [6]: In vivo pharmacokinetic profile (plasma levels). Details: species or system CD-1 mice. The following applies: CD-1, mouse, 25 mg/kg single dose, CD1 female mice. How it is done: Pharmacokinetic profile of Compound 1 was determined in CD-1 mice (FIG. 1). CD1 female mice (6 weeks of age) received a single intravenous or intraperitoneal dose of Compound 1 (25 mg/kg; 5 mL/kg) in […]/4.5% Glycocholate/5% EtOH formulation. Blood was collected into EDTA-containing tubes by cardiac puncture. Quantification of Compound 1 plasma levels was done by high performance liquid chromatographic-mass spectrometric method. Cmax values represent the maximum observed plasma concentration and AUC represents the area under the plasma concentration versus time curve (Table 6).

Series [7] concerns MDA-MB-231 (mammary gland adenocarcinoma). The experiment in a line: In vitro tumor growth inhibition (GI50, propidium iodide). The conditions noted are these: Homo sapiens, 96 hrs. Type of series: cell-based.
In series [8] the test system is Enterococcus faecalis VRE-1 (ATCC™ 29212). The experiment in a line: Antibacterial activity, MIC (NCCLS M7-A5). Type of series: cell-based. The conditions noted are these: BHI+ medium, 35° C., 16 to 20 hours.
The nature of series [9]: Acute toxicity in CD-1 nu/nu mice. Type of series: in vivo. The following applies: CD-1 nu/nu, mouse, in vivo, 6% Tween/4.5% Glycocholate/5% EtOH formulation. How it is done:
(§3) Toxicity and therapeutic efficacy of polycyclic aromatic compounds can be determined by standard pharmaceutical procedures in cell cultures or experimental animals. Therapeutic efficacy is determined in animal models as described above and in the examples herein. Toxicity studies are done to determine the lethal dose for 10% of tested animals (LD10). Animals are treated at the maximum tolerated dose (MTD): the highest dose not producing mortality or greater than 20% body weight loss. The effective dose (ED) is related to the MTD in a given tumor model to determine the therapeutic index of the compound.
(§4) In vivo toxicity: With CD1 mice, the maximum tolerated dose (MTD) for a single-dose via i.v. or i.p. routes in 1% SDS formulation was ≧5 mg/kg. The acute toxicity in CD-1 nu/nlu mice of Compound 1 was also determined in 6% Tween/4.5% Glycocholate/5% EtOH formulation.

Series [10] relates to CD-1 nu/nlu mice. The experiment in a line: Acute toxicity in CD-1 nu/nu mice. The class given is in vivo. The conditions noted are these: i.v.; 6% Tween/4.5% Glycocholate/5% EtOH formulation. How it is done:
as §3, §4

The test system of series [11] is Staphylococcus aureus (ATCC™ 6538P). Kind of series: Antibacterial activity, MIC (NCCLS M7-A5). Type of series: cell-based. The conditions noted are these: MH medium, 35° C., 16 to 20 hours.

Converted amounts (≈) assume the structure as drawn.

The term GI50 denotes the concentration at which growth is held to half of that of the control. For orientation: MIC means the lowest concentration found to suppress growth. The low end stands for a more susceptible organism, the high end for a less susceptible organism. As a reminder, the AUC is the area under the concentration-time curve, a measure of exposure. Read a high AUC as more exposure. As a reminder, the Cmax is the peak of the concentration-time curve.

`CCC(C)c1cc2c(=O)c3ccc4c(OC)c5c(=O)c6c(O)ccc(O)c6c(=O)c5c(O)c4c3c(=O)c2c(=O)n1CC(=O)N1CC(C(=O)O)NC(=O)C1C` (stereo not drawn) [Compound 1]: the GI50 in [1] was found to be 8.85 µM; in [7], 14.6 µM. Moreover, the MIC was 8 µg/mL (≈ 10.8 µM) in series [2]; 8 µg/mL (≈ 10.8 µM) in [3]; 4 to 16 µg/mL (≈ 5.42 to 21.7 µM) in series [5]; 0.063 µg/mL (≈ 0.0854 µM) in series [8]; 0.016 µg/mL (≈ 0.0217 µM) in series [11]. In addition, in series [4], the “Hemolytic activity (hemoglobin released)” value is listed as “did not display hemolytic activity up to 64 μg/mL”. The values for the AUC in series [6] (ip) and in series [6] (iv) were 649 µg·h/mL and 1180 µg·h/mL, respectively. For the same compound, the figures for the Cmax in [6] (ip) and in [6] (iv) were 111 µg/mL and 227 µg/mL, respectively. The results for the MTD in [9] (ip) and in [9] (iv) were no less than 50 mg/kg and 25 mg/kg, respectively. Besides, the Injection site observation result in series [10] is on record as “necrosis at the injection site was observed”.

For the origin of these results see patent US20060106028A1, “Polycyclic aromatics and derivatives thereof and processes for their preparation” (priority 2004, published 2006).
